Assay results: patent US12162858B2, “Quinoline derivatives as inhibitors of AXL/MER RTK and CSF1R” (QURIENT CO., LTD., priority 2018, dated 2024)
Read-outs that look alike come from different tables or passages of the source.

Columns and labels:
CSF1R [1] = target: T1, CSF1R (Homo sapiens, UniProt P07333); test: KINOMEscan competition binding assay for CSF1R; design: DNA tag for qPCR (not a peptide); host or cells: E. coli/T7 phage or HEK-293; conditions: for Kd: read-out: CSF1R kinase binding activity (Kd)
T1 sequence (P07333 20-972): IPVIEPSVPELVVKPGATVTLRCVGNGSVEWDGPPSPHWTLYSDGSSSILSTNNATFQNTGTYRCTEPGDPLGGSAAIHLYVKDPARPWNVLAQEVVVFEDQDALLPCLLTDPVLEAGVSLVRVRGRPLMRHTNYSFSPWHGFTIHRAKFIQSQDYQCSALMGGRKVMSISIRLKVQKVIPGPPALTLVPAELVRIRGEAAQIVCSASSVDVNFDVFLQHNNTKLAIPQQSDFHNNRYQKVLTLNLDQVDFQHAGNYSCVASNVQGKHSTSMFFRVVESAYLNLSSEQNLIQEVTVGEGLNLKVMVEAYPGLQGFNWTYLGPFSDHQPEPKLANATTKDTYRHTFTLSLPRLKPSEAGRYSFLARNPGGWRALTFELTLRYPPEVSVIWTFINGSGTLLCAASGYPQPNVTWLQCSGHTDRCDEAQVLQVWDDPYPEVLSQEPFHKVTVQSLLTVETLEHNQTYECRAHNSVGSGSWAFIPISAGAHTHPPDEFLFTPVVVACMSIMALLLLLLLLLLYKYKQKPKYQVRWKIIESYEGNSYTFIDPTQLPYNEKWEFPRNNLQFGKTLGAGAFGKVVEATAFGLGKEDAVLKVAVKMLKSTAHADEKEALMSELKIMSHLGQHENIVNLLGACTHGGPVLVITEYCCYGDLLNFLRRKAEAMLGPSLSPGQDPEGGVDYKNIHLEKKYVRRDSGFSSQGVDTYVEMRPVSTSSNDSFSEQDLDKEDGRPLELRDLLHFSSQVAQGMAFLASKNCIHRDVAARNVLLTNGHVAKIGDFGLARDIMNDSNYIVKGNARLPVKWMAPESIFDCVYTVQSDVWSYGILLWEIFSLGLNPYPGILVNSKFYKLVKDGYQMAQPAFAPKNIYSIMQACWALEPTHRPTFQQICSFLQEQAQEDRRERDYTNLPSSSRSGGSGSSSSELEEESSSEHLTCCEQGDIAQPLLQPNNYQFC
How it was run: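 Values are either % inhibition at 0.1 uM, relative to DMSO (100% Ctrl) and a control compound (0% Ctrl), or Kd from an 11-point 3-fold series fitted with Hill slope −1. DNA-tagged kinase binds immobilized ligand beads with compound for 1 h at room temperature, and eluted kinase is measured by qPCR.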

CSF1R [2] = target: T1, CSF1R; test: Cellular CSF1R inhibition ELISA (p-CSF1R, M-CSF-induced) using THP-1 cells; format: cell-based; design: THP-1 cells act as a model for human monocytes; endogenous in cells; host or cells: THP-1
How it was run: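 THP-1 cells (2×10^5/well, RPMI/10% FBS) were treated with compound, 10 doses in 3-fold steps, for 24 h at 37 °C in 0.2% DMSO final. They were then stimulated 5 min with human M-CSF (10 ng/ml final) and lysed. p-CSF1R was read by sandwich ELISA (HRP/TMB), with a sigmoidal dose-response fit.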

[3] = read-out: CSF1R kinase binding activity, Percent (%) inhibition
[4] = read-out: CSF1R kinase binding activity, Range

| Structure (SMILES) | inhibition at 0.1 µM (CSF1R [1]; [3]) [%] | inhibition at 0.1 µM (CSF1R [1]; [4]) [%] | IC50 (CSF1R [2]) [nM] | Kd (CSF1R [1]) [nM] |
| --- | --- | --- | --- | --- |
| COc1cc2nccc(Oc3ccc(NC(=O)c4nn(C)cc4OCC(F)(F)F)cc3C)c2cc1OC [Compound 37] | 97 | ≥ 80 | < 500 | – |
| COc1cc2nccc(Oc3ccc(NC(=O)c4nn(CCO)cc4OCC(F)(F)F)cc3)c2cc1OC [Compound 59] | 82 | ≥ 80 | < 500 | – |
| COc1cc2nccc(Oc3ccc(NC(=O)c4nn(CC5CCNC5)cc4OCC(F)(F)F)nc3)c2cc1OC (centres unmarked) [Compound 72] | 96 | ≥ 80 | < 500 | – |
| COc1cc2nccc(Oc3ccc(NC(=O)c4nn(CC(C)C)cc4OCC(F)(F)F)cc3F)c2cc1OC [Compound 53] | 71 | 50 to 80 | 500 to 1000 | – |
| CCCn1cc(OCCC(O)CO)c(C(=O)Nc2ccc(Oc3ccnc4cc(OC)c(OC)cc34)cn2)n1 (centres unmarked) [Compound 15] | 87 | ≥ 80 | ≥ 1000 | – |
| COc1cc2nccc(Oc3ccc(NC(=O)c4nn(C)cc4OCC(F)(F)F)c(F)c3)c2cc1OC [Compound 45] | 93 | ≥ 80 | < 500 | – |
| COc1cc2nccc(Oc3ccc(NC(=O)c4nn(CC(C)O)cc4OCC4CN(C)C4)nc3)c2cc1OC (centres unmarked) [Compound 174] | 25 | < 50 | ≥ 1000 | – |
| COc1cc2nccc(Oc3ccc(NC(=O)c4nn(C5CC5)cc4OCCC(F)(F)F)nn3)c2cc1OC [Compound 173] | 69 | 50 to 80 | ≥ 1000 | – |
| CCn1nc(C(=O)Nc2ccc(Oc3ccnc4cc(OC)c(OC)cc34)cn2)c(OCC(F)(F)F)c1C [Compound 1] | 96 | ≥ 80 | < 500 | < 100 |
| COc1cc2nccc(Oc3ccc(NC(=O)c4nn(C5CCCCC5)cc4OCC(F)(F)F)nc3)c2cc1OC [Compound 69] | 89 | ≥ 80 | < 500 | – |
| COc1cc2nccc(Oc3ccc(NC(=O)c4nn(C5CCNC5)cc4OCC(F)(F)F)nc3)c2cc1OC (centres unmarked) [Compound 70] | 79 | 50 to 80 | 500 to 1000 | – |
| CCCn1cc(OCC(F)(F)F)c(C(=O)Nc2ccc(Oc3ccnc4cc(OC)c(OC)cc34)cc2F)n1 [Compound 28] | 90 | ≥ 80 | 500 to 1000 | – |
| COc1cc2nccc(Oc3ccc(NC(=O)c4nn(CCN)cc4OCC(F)(F)F)c(F)c3)c2cc1OC [Compound 75] | 57 | 50 to 80 | ≥ 1000 | – |
| COc1cc2nccc(Oc3ccc(NC(=O)c4nn(CC(C)=O)cc4OCC(F)(F)F)nc3)c2cc1OC [Compound 19] | 97 | ≥ 80 | < 500 | – |
| COc1cc2nccc(Oc3ccc(NC(=O)c4nn(C5COC5)cc4OCC(F)(F)F)nc3)c2cc1OC [Compound 66] | 96 | ≥ 80 | < 500 | – |
| COc1cc2nccc(Oc3ccc(NC(=O)c4nn(C(C)(C)C)cc4OCC(F)(F)F)nc3)c2cc1OC [Compound 22] | 93 | ≥ 80 | < 500 | – |
| COc1cc2nccc(Oc3ccc(NC(=O)c4nn(CCC#N)cc4OCC(F)(F)F)nc3)c2cc1OC [Compound 39] | 97 | ≥ 80 | < 500 | – |
| COc1cc2nccc(Oc3ccc(NC(=O)c4nn(CC(C)C)cc4OCC(F)(F)F)nc3)c2cc1OC [Compound 21] | 95 | ≥ 80 | < 500 | – |
| COc1cc2nccc(Oc3ccc(NC(=O)c4nn(C5CC5)cc4OCCC(F)(F)F)nc3)c2cc1OC [Compound 170] | 90 | ≥ 80 | < 500 | – |
| CCCn1cc(NCC(F)(F)F)c(C(=O)Nc2ccc(Oc3ccnc4cc(OC)c(OC)cc34)cn2)n1 [Compound 23] | 94 | ≥ 80 | < 500 | – |
| COc1cc2nccc(Oc3ccc(NC(=O)c4nn(C5CCCC5)cc4OCC(F)(F)F)c(F)c3)c2cc1OC [Compound 47] | 91 | ≥ 80 | 500 to 1000 | – |

| Structure (SMILES) | inhibition at 0.1 µM (CSF1R [1]; [3]) [%] | inhibition at 0.1 µM (CSF1R [1]; [4]) [%] | IC50 (CSF1R [2]) [nM] | Kd (CSF1R [1]) [nM] |
| --- | --- | --- | --- | --- |
| COc1cc2nccc(Oc3ccc(NC(=O)c4nn(CC5CCCCC5)cc4OCC(F)(F)F)nc3)c2cc1OC [Compound 43] | 94 | ≥ 80 | < 500 | – |
| COc1cc2nccc(Oc3ccc(NC(=O)c4nn(C)cc4OCC(F)(F)F)cc3F)c2cc1OC [Compound 50] | 80 | 50 to 80 | 500 to 1000 | – |
| COc1cc2nccc(Oc3ccc(NC(=O)c4nn(CC(C)O)cc4OCC(F)(F)F)c(F)c3)c2cc1OC (centres unmarked) [Compound 76] | 94 | ≥ 80 | ≥ 1000 | – |
| COc1cc2nccc(Oc3ccc(NC(=O)c4nn(CC(C)N)cc4OCC(F)(F)F)nc3)c2cc1OC (centres unmarked) [Compound 63] | 96 | ≥ 80 | 500 to 1000 | – |
| COc1cc2nccc(Oc3ccc(NC(=O)c4nn(CC5CCN(C)C5)cc4OCC(F)(F)F)nc3)c2cc1OC (centres unmarked) [Compound 169] | 93 | ≥ 80 | < 500 | – |
| COc1cc2nccc(Oc3ccc(NC(=O)c4nn(CC5CCC5)cc4OCC(F)(F)F)nc3)c2cc1OC [Compound 42] | 95 | ≥ 80 | < 500 | – |
| COc1cc2nccc(Oc3ccc(NC(=O)c4nn(C5CCCC5)cc4OCC(F)(F)F)cc3F)c2cc1OC [Compound 52] | 71 | 50 to 80 | ≥ 1000 | – |
| CCCn1cc(OCC(F)(F)F)c(C(=O)Nc2ccc(Oc3ccnc4cc(OC)c(OC)cc34)cc2C)n1 [Compound 27] | 58 | 50 to 80 | ≥ 1000 | – |
| COCCOc1cn(C2CC2)nc1C(=O)Nc1ccc(Oc2ccnc3cc(OC)c(OC)cc23)nn1 [Compound 171] | 60 | 50 to 80 | ≥ 1000 | – |
| COc1cc2nccc(Oc3ccc(NC(=O)c4nn(C5CC5)cc4OCC4CNC4)nn3)c2cc1OC [Compound 172] | 36 | < 50 | ≥ 1000 | – |
| COc1cc2nccc(Oc3ccc(NC(=O)c4nn(C)cc4OCC(F)(F)F)nc3)c2cc1OC [Compound 33] | 98 | ≥ 80 | < 500 | – |
| COc1cc2nccc(Oc3ccc(NC(=O)c4nn(CCCN)cc4OCC(F)(F)F)nc3)c2cc1OC [Compound 68] | 98 | ≥ 80 | < 500 | – |
| COc1cc2nccc(Oc3ccc(NC(=O)c4nn(CC5CNC5)cc4OCC(F)(F)F)nc3)c2cc1OC [Compound 73] | 97 | ≥ 80 | < 500 | – |
| COc1cc2nccc(Oc3ccc(NC(=O)c4nn(CC(C)C)cc4OCC(F)(F)F)c(F)c3)c2cc1OC [Compound 48] | 82 | ≥ 80 | 500 to 1000 | – |
| COc1cc2nccc(Oc3ccc(NC(=O)c4nn(C5CCOC5)cc4OCC(F)(F)F)cc3)c2cc1OC (centres unmarked) [Compound 62] | 54 | 50 to 80 | ≥ 1000 | – |
| COc1cc2nccc(Oc3ccc(NC(=O)c4nn(C(C)C)c(C)c4OCC(F)(F)F)nc3)c2cc1OC [Compound 2] | 89 | ≥ 80 | < 500 | 100 to 500 |
| CCC(=O)n1cc(OCC(F)(F)F)c(C(=O)Nc2ccc(Oc3ccnc4cc(OC)c(OC)cc34)cn2)n1 [Compound 20] | 99 | ≥ 80 | < 500 | – |
| CCCCn1cc(OCC(F)(F)F)c(C(=O)Nc2ccc(Oc3ccnc4cc(OC)c(OC)cc34)cn2)n1 [Compound 36] | 95 | ≥ 80 | < 500 | – |
| COc1cc2nccc(Oc3ccc(NC(=O)c4nn(C[C@H](C)O)cc4OCC(F)(F)F)nc3)c2cc1OC [Compound 30] | 99 | ≥ 80 | < 500 | – |
| COc1cc2nccc(Oc3ccc(NC(=O)c4nn(CCO)cc4OCC(F)(F)F)cc3F)c2cc1OC [Compound 51] | 82 | ≥ 80 | < 500 | – |
